The values below come from patent US20240382461A1, “PHARMACEUTICAL COMPOSITION AND METHOD FOR PREVENTION AND TREATMENT OF HEARING LOSS” (PHARMAZZ, INC., priority 2023, published 2024).

The test system of experiment [1] is ETB and vascular endothelial growth factor (VEGF) in the cerebrovasculature. As to conditions: administration on post-natal day 21; rat brain; cited from earlier work.
In experiment [2] the test system is aminoglycoside-induced hearing loss. Description: Kanamycin/furosemide (aminoglycoside)-induced hearing loss in mice, intra-tympanic injection, ABR. In kind it is in vivo, mouse. The note with it: after kanamycin/furosemide (K/F) exposure; 5 and 15 ug/kg intra-tympanic; 8, 16 and 32 kHz. An excerpt: (§1) The study aimed to determine whether Sovateltide (IRL-1620, PMZ-1620); an endothelin-B receptor agonist has otoprotective efficacy and that Sovateltide can ameliorate noise- or aminoglycoside-induced hearing loss in a mouse model system. Animals received either unilateral intra-tympanic Sovateltide at one of two dose concentrations or vehicle control injection. The study conducted unilateral auditory brainstem response (ABR) hearing tests at baseline and again at least 14 days after noise or aminoglycoside exposure as the primary measurement. A gross anatomical examination of treated middle ears was also conducted at necropsy.
(§2) FIG. 4 describes the study design where male and female mice were divided into seven groups, each with ten mice. Groups 1-3 were treated with 112-decibel noise to induce cochlear trauma, whereas groups 4-6 were treated with kanamycin+frusomide to induce aminoglycoside-induced cochlear trauma, and group 7 was kept as the control. In addition, Sovateltide in two different doses was administered in groups 1, 2, 4, and 5, while the vehicle, phosphate-buffered saline, was administered in groups 3, 6, and 7. The auditory brainstem response (ABR) test was performed at baseline and day 14 after noise or aminoglycoside exposure.
[Male & female C57Bl/6 mice used in this study were obtained from Charles River Labs. […]

In experiment [3] the target is ETB receptors. The note with it: cited from earlier work.
In experiment [4] the test system is adult mouse cochlear cells. Description: Cultured adult mouse cochlear cells, JC 1 dye mitochondrial membrane potential, confocal imaging. It counts as cell-based. As to conditions: 1 ng/ml for 7 days. The method, then:
Inner ears comprising cochlear neuroepithelium from adult mice were dissected after anesthetizing with urethane 1.5 g/kg body weight and euthanizing with cervical dislocation. Inner ears were placed in cold saline, and the cochlea was dissected under the dissection microscope. The isolated cochlea was placed in a cold saline solution and chopped finely in a sterile condition inside a culture hood. Minced tissues were transferred to a 15 ml falcon tube and centrifuged at 1000 RPM for 2 min. The supernatant was discarded, and the pellet was submersed in 1× Trypsin EDTA solution (Cat No. R-001-100, GIBCO, MA) and triturated using a 1 ml pipette and cut-tip. The triturated tissue was incubated at 37° C. for 20 min. After 20 min, the digested tissues were vortexed gently and checked for proper digestion of the tissues. The digestion step was repeated by adding the same volume of 1× trypsin EDTA solution and incubating for 10 minutes. After a satisfactory level of digestion, the tissue solution was filtered with a sieve of pore size 40 μm to isolate cell suspension and remove undigested tissues. The cell suspension was collected in a 15 ml falcon tube, and 1 ml of serum-containing cell culture media was added and mixed properly to stop further digestion. The cochlear cell solution was centrifuged at 2000 RPM for 3 min at RT. The cell pellet was resuspended in 8 ml of 10% fetal bovine serum containing culture media and plated in 60 mm tissue culture-treated plastic plates (Alkali Scientific Inc. Fort Lauderdale, FL). The Neurobasal culture media supplemented with B-27 (Gibco, Waltham, MA) was used for culturing cochlear cells. […]
Sovateltide treatment—The cultured mouse cochlear cells were treated with 1 ng/ml sovateltide for 7 days in 2 different conditions—1) Serum-free media and 2) Serum containing media. […] Fluorescence confocal microscopy imaging was done on live cells. […]
JC-1 is a novel cationic carbocyanine dye that accumulates in mitochondria. The dye exists as a monomer at low concentrations and yields green fluorescence, similar to fluorescein. […]

The target of a further experiment is T1, ETA receptors (Sus scrofa, UniProt Q29010).
T1 sequence (Q29010 21-427): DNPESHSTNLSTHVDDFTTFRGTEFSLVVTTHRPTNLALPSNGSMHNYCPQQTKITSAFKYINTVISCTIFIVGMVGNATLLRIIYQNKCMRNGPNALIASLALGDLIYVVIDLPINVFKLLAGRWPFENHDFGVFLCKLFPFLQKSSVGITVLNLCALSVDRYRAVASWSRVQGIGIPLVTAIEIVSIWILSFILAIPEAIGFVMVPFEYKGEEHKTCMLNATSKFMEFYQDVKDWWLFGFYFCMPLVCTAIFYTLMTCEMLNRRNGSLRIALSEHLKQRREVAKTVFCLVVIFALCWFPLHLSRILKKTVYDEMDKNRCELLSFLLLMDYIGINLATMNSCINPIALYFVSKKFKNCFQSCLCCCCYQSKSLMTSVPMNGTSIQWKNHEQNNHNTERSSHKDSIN
As to conditions: cited from earlier work.

Experiment [5] concerns noise-induced hearing loss. Put plainly: Noise-induced hearing loss in mice, intra-tympanic injection, auditory brainstem response (ABR). In kind it is in vivo, mouse. As to conditions: after noise exposure.
Source text: as §1, §2
[Male & female C57Bl/6 mice used in this study were obtained from Charles River Labs. All study animals (n=69) underwent anesthesia via 87.5 mg/kg (Ketamine)/12.5 mg/kg (Xylazine) IP injection and baseline unilateral left ear ABR testing at 8, 16, and 32 kHz.
Study animals in Groups 1-6 (n=59) underwent cochlear trauma, either via noise (112 dB SPL, 8-16 kHz band, 2-hr duration) exposure while awake, with the goal of producing a moderate chronic hearing loss in all animals or a single injection of subcutaneous kanamycin and intraperitoneal furosemide on Day 0. The noise treatment typically produced moderate hearing losses in the range of 20-50 dB and scattered losses of outer hair cells but little, if any, loss of inner hair cells. […]

The subject of experiment [6] is ETB receptors. Put plainly: Ki of sovateltide for ETB receptors (literature). In kind it is binding. The note with it: ratio of Ki values.

pKi: −log10 of the molar value. Entries after “also recorded” stand apart in the source; their conditions may differ. Numbered stars: 1 amine (or outer) side, 2 acyl side, 3 side chain; on linkers, the order of the positions; unused ones are H or OH. Ends that are not written are not given here. Suc = O=C(CCC(=O)[*:2])[*:1]

A word on the pKi: it is the negative decadic logarithm of the Ki, by convention in mol/L.

Take “synthetic analog of ET-1, ETB receptor agonist; Suc-Asp-Glu-Glu-Ala-Val-Tyr-Phe-Ala-His-Leu-Asp-Ile-Ile-Trp; CAS #142569-99-1 (Suc-DEEAVYFAHLDIIW) [Sovateltide, N-Succinyl-[Glu9, Ala11,15] endothelin 1]”: in experiment [1], the “ETB and VEGF expression in the cerebrovasculature” value is recorded as “significant increase”. Further, the “ABR threshold shift from baseline to Day 14 versus vehicle” value in experiment [2] is listed as “not significantly different; also recorded: did not produce statistically reliable differences; also recorded: did not have any discernible impact”; in experiment [5] (5 and 15 ug/kg intra-tympanic, 8, 16 and 32 kHz) it was “not significantly different; also recorded: did not produce statistically reliable differences”. For the same substance, the negative logarithm of the Ki (pKi) is 10.80 at ETB receptors [3] and 5.72 with ETA receptors. Further, the “mitochondrial protection (JC 1 mitochondrial membrane potential) versus saline control” value in experiment [4] (serum containing media) is “reduction in compromised mitochondrial protection”; in experiment [4] (serum-free media) it was “more mitochondrial protection than control”; in experiment [4] (serum-free media, listed as sovateltide), “notable improvement in mitochondrial protection and improved cellular viability”. The “ABR threshold shift at 8 kHz versus vehicle” value in experiment [5] (5 ug/kg intra-tympanic, p=0.2513) is “trend of lower threshold shift”; in experiment [5] (15 ug/kg intra-tympanic, p=0.0834), “trend of lower threshold shift; also recorded: nearly significant effect”. The “selectivity for ETB over ETA receptors” value with ETB receptors [6] is ~120,000 times.
